Experimental data taken from ChEMBL document CHEMBL1201862, “PubChem BioAssay data set” (2004).
Each block holds one compound with its values, some of them ahead of it. The source made the active and inactive calls.

Tests used:
[1] = target: Cytochrome P450 2C9 (Homo sapiens, UniProt P11712)
[2] = target: T1, Orexin receptor type 2 (Homo sapiens, UniProt O43614); experiment: Counterscreen assay for antagonists of the orexin 1 receptor (OX1R; HCRTR1): Fluorescence-based cell-based dose response assay for antagonists of the orexin 2 receptor (OX2R; HCRTR2), run by assay provider.; format: functional
T1 sequence (O43614 whole entry): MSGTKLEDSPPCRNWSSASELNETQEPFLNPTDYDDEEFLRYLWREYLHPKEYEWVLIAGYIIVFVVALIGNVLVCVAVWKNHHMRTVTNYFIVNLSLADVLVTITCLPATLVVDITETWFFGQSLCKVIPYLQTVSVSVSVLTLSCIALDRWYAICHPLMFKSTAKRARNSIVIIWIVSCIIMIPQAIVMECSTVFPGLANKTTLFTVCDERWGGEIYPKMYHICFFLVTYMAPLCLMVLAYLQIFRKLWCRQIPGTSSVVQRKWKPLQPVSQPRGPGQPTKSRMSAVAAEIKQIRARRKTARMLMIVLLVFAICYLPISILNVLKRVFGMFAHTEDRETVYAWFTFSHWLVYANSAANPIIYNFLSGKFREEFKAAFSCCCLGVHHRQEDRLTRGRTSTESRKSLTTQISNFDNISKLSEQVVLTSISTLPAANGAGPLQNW

[3] = target: T2, Orexin/Hypocretin receptor type 1 (Homo sapiens, UniProt O43613); experiment: Homogeneous Time Resolved Fluorescence (HTRF)-based cell-based high throughput dose response assay for antagonists of the orexin 1 receptor (OX1R; HCRTR1). [Related pubchem assays (depositor defined):AID434989, AID435008, AID463079, AID485270, AID492963, AID492964, AID492965, AID493232, AID504717, AID504718]; format: functional
T2 sequence (O43613 whole entry): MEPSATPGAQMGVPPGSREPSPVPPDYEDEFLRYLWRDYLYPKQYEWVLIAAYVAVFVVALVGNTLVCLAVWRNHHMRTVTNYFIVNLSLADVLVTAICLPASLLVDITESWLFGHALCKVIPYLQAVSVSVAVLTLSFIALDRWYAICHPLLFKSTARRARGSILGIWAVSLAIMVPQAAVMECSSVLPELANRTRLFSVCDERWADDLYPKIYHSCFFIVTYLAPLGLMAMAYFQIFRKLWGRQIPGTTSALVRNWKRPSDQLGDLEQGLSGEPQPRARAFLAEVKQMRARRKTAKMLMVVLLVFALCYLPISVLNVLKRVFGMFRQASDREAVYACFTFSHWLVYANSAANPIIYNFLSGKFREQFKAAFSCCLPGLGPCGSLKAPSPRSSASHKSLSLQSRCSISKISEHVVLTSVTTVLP

[4] = target: Peroxisome proliferator-activated receptor gamma/Nuclear receptor coactivator 1 (Homo sapiens, UniProt P37231); experiment: TR-FRET dose response biochemical High Throughput Screening assay for agonists of the steroid receptor coactivator 1 (SRC-1) recruitment by the peroxisome proliferator-activated receptor gamma (PPAR gamma): non-selective agonists. [Related pubchem assays (depositor defined):AID1300, AID1808, AID504735, AID631]; format: protein assay
[5] = target: T2, Orexin/Hypocretin receptor type 1; experiment: Fluorescence-based cell-based high throughput dose response assay for antagonists of the orexin 1 receptor (OX1R; HCRTR1). [Related pubchem assays (depositor defined):AID434989, AID435008, AID463079, AID485270, AID492963, AID492964, AID492965, AID493232, AID504717, AID504718]; format: functional
[6] = system: CHO-K1; experiment: (§1) Counterscreen for antagonists of the orexin 1 receptor (OX1R; HCRTR1): Homogeneous time resolved fluorescence (HTRF)-based cell-based dose response assay to identify antagonists of the parental CHO-K1 cell line. [Related pubchem assays (depositor defined):AID434989, AID435008, AID463079, AID485270, AID492963, AID492964, AID492965, AID493232, AID504699, AID504701]; format: functional; settings: Cricetulus griseus
[7] = as §1, with “Fluorescence-based” for “Homogeneous time resolved fluorescence (HTRF)-based”, “cell-based high throughput” for “cell-based”, “CHO” for “CHO-K1”; format: functional
[8] = target: Photoreceptor-specific nuclear receptor (Homo sapiens, UniProt Q9Y5X4); experiment: ligands suppressing NR2E3 nuclear receptor activity – biochemical, TR-FRET, dose response (AID 463256); format: functional
[9] = target: Peroxisome proliferator-activated receptor gamma/Nuclear receptor coactivator 2 (Homo sapiens, UniProt P37231); experiment: (§2) TR-FRET dose response biochemical High Throughput Screening assay for agonists of the steroid receptor coactivator 2 (SRC-2) recruitment by the peroxisome proliferator-activated receptor gamma (PPAR gamma): non-selective agonists. [Related pubchem assays: 1297, 1032 ]; format: functional
[10] = target: T1, Orexin receptor type 2; experiment: Counterscreen assay for antagonists of the orexin 1 receptor (OX1R; HCRTR1): Homogeneous Time Resolved Fluorescence (HTRF)-based cell-based dose response assay for antagonists of the orexin 2 receptor (OX2R; HCRTR2), run by assay provider.; format: functional
[11] = target: Peroxisome proliferator-activated receptor gamma/Nuclear receptor corepressor 2 (Homo sapiens, UniProt P37231+Q9Y618); experiment: Counterscreen for NR2E3 inverse agonists: TR-FRET-based biochemical high throughput dose response assay to identify inverse agonists of the interaction between peroxisome proliferator-activated receptor gamma (PPARg) and nuclear receptor co-repressor 2 (NCOR2).; format: functional
[12] = target: Peroxisome proliferator-activated receptor gamma/Nuclear receptor coactivator 3 (Homo sapiens, UniProt P37231); experiment: as §2, with “3 (SRC-3)” for “2 (SRC-2)”, “1301 (Confirmation screen.), 1048 (Primary screen.)]” for “1297, 1032 ]”; format: functional
[13] = target: CAAX prenyl protease 1 (Saccharomyces cerevisiae S288c, UniProt P47154); experiment: yeast CAAX protease Ste24 inhibition – biochemical, S. cerevisiae, plate reader, cherry-pick, dose response (AID 488815)
[14] = target: Cytochrome P450 3A4 (Homo sapiens, UniProt P08684);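 also: CYP3A4 tested as one member of a cytochrome P450 panel screen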
[15] = target: Cytochrome P450 2D6 (Homo sapiens, UniProt P10635);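 also: CYP2D6 member of a cytochrome P450 panel assay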
Chain of Cytochrome P450 2D6 (P10635 whole entry): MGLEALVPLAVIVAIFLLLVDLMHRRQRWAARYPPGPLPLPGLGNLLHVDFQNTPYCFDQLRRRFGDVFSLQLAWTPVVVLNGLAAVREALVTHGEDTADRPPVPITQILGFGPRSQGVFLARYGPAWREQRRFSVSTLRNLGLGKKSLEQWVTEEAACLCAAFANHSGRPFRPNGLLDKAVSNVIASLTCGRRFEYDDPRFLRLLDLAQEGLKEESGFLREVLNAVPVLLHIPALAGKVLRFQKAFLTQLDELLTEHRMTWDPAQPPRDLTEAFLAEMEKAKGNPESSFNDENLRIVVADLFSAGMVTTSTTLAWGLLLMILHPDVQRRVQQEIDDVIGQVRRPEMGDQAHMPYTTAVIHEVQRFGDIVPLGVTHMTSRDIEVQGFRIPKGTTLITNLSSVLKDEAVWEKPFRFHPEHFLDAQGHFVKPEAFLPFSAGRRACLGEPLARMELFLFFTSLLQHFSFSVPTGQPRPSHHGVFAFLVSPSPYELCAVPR

Chain of Cytochrome P450 2C9 (P11712 whole entry): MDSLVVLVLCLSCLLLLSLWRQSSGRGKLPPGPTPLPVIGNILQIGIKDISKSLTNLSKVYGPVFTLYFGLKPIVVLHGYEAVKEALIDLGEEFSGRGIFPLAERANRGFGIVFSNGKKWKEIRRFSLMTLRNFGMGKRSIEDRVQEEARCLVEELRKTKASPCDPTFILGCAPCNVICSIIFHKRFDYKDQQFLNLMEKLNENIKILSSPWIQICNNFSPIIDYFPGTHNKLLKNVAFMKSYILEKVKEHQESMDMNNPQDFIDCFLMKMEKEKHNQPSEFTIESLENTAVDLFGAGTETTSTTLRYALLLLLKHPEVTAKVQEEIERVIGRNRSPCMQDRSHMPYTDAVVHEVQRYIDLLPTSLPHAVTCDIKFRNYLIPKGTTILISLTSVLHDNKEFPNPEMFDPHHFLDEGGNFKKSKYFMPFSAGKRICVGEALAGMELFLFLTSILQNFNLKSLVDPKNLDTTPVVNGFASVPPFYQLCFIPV
Chain of Cytochrome P450 3A4 (P08684 whole entry): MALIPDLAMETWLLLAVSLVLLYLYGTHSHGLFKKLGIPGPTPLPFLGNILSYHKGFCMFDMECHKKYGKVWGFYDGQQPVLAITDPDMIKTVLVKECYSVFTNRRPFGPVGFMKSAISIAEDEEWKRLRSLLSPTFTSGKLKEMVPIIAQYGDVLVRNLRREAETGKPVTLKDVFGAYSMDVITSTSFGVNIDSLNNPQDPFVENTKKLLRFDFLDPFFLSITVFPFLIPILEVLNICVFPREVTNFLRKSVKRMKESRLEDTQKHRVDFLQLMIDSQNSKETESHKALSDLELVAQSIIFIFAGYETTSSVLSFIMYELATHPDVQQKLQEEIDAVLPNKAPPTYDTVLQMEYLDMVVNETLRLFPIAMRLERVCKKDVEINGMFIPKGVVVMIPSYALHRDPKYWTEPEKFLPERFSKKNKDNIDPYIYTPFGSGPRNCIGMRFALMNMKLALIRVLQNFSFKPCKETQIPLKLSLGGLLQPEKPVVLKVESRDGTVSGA
Chain of Peroxisome proliferator-activated receptor gamma/Nuclear receptor coactivator 1 (P37231 whole entry): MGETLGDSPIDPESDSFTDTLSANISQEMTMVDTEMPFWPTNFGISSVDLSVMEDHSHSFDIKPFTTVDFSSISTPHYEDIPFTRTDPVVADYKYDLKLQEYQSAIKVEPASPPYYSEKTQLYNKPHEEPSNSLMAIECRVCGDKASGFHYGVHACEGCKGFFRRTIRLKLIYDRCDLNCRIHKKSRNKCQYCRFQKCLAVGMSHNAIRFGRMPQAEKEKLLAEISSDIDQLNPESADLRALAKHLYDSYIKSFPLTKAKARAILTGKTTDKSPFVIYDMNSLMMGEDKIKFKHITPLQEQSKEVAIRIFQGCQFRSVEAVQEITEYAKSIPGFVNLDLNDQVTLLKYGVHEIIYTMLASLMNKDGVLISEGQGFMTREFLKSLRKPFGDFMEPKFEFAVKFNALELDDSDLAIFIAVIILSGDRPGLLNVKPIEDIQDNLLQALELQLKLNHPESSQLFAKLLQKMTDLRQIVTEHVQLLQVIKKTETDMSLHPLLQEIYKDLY
Chain of Peroxisome proliferator-activated receptor gamma/Nuclear receptor coactivator 1 (Q15788 whole entry, further chain): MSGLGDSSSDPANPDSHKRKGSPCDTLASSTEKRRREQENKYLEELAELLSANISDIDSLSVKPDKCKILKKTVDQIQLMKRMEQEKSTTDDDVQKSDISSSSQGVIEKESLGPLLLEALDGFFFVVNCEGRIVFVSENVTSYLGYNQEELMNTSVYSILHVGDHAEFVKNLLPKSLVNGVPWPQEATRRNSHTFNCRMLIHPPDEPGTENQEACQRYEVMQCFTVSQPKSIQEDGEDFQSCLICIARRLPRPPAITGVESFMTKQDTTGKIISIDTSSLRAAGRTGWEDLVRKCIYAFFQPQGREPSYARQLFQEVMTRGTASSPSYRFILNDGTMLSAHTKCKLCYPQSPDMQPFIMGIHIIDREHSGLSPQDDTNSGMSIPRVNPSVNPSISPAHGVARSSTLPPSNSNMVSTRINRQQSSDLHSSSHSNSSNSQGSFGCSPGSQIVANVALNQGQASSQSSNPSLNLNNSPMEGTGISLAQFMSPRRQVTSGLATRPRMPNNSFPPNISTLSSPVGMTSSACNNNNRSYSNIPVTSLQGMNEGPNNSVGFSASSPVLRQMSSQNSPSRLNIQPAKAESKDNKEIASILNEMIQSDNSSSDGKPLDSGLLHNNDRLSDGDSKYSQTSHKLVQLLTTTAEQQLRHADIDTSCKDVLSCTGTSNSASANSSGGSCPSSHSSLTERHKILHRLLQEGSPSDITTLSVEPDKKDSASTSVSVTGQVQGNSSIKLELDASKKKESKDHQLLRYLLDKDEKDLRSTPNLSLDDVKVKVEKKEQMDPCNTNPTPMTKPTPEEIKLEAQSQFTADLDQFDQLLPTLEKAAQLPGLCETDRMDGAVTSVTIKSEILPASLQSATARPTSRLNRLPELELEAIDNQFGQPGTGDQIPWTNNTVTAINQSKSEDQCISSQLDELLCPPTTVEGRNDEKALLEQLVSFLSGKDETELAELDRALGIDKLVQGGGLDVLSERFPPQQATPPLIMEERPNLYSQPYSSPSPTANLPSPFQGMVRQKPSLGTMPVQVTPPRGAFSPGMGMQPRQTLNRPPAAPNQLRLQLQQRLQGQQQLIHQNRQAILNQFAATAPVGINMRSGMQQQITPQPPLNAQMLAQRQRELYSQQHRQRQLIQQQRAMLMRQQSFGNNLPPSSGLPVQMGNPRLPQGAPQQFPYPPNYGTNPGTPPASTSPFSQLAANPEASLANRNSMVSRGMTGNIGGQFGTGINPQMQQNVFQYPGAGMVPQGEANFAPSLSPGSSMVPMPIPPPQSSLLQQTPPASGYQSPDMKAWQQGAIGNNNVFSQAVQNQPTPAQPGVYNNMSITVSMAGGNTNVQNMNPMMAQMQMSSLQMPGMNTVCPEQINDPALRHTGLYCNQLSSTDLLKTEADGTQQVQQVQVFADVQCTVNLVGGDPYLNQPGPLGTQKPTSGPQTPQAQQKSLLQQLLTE
Chain of Photoreceptor-specific nuclear receptor (Q9Y5X4 whole entry): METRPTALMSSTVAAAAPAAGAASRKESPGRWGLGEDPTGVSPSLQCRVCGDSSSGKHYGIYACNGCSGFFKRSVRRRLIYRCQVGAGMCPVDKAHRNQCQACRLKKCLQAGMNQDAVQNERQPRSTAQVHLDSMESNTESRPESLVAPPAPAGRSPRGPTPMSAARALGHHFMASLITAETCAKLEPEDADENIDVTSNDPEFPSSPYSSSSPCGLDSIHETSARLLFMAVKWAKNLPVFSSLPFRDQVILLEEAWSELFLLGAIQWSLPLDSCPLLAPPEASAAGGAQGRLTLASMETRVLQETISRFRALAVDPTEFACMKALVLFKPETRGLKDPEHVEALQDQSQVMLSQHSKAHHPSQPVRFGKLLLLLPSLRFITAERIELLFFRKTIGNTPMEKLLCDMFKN
Chain of CAAX prenyl protease 1 (P47154 whole entry): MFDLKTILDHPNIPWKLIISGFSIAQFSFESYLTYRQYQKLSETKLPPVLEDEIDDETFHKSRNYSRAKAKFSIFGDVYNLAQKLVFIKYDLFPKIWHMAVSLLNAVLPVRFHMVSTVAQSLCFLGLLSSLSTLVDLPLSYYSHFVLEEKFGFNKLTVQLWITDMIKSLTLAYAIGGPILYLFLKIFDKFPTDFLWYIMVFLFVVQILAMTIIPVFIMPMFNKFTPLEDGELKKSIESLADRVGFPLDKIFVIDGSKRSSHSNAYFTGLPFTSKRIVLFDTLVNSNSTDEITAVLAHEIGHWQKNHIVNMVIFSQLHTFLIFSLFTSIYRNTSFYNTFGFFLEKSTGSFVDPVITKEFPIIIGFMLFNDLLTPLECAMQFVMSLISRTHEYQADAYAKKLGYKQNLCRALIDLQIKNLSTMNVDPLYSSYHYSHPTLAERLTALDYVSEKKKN

AC50 [1]: inconclusive
SMILES: CCOc1ccccc1Oc1coc2cc(OC)ccc2c1=O

SMILES: NS(=O)(=O)c1ccc(CNC(=O)c2cc(-c3ccccn3)nc3ccc(Cl)cc23)cc1
IC50 [2]: 30.1 µM (inactive)
IC50 [3]: 2.46 µM (active)
EC50 [4]: 6.13 µM (active)
IC50 [5]: > 49.7 µM (inactive)
IC50 [6]: > 66.2 µM (inactive)
IC50 [7]: > 49.7 µM (inactive)
IC50 [8]: > 4.43 µM (active)
EC50 [9]: 5.82 µM (active)
IC50 [10]: > 50 µM (inactive)
IC50 [11]: > 39.9 µM (not active)
EC50 [12]: 17.6 µM (not active)

AC50 [13]: 5.47 µM (active)
SMILES: COc1cc(OC)cc(-c2ncc3ccccn23)c1

AC50 [14]: 5.01 µM (inconclusive)
AC50 [15]: inconclusive
SMILES: Br/C(=N\N=c1/nn[nH][nH]1)c1ccncc1
